Consider 18 molecules from patent publication US20250206757A1 (GASHERBRUM BIO, INC., priority 2022, published 2025).

Usually EC50 stands for the concentration at which the effect is half-maximal. Low values mean a more potent agent, high ones a less potent agent.

The target of the assay is GLP-1 Receptor (Homo sapiens, UniProt P43220). As to the kind of experiment: GLP-1R agonist cAMP stimulation assay (HEK293/GLP1R/CRE-LUC cells, HTRF cAMP dynamic 2 kit). Format: cell-based. The conditions noted are these: HEK293/CRE-Luc cell line stably expressing the GLP-1 Receptor; 30 min incubation at 37° C. The method, then: Activation of GLP-1 receptor is known to stimulate cyclic AMP (cAMP) production in cells which indicates primary coupling to the Gas subunit of the G protein heterotrimeric complex.
Chain of GLP-1 Receptor (P43220 24-463): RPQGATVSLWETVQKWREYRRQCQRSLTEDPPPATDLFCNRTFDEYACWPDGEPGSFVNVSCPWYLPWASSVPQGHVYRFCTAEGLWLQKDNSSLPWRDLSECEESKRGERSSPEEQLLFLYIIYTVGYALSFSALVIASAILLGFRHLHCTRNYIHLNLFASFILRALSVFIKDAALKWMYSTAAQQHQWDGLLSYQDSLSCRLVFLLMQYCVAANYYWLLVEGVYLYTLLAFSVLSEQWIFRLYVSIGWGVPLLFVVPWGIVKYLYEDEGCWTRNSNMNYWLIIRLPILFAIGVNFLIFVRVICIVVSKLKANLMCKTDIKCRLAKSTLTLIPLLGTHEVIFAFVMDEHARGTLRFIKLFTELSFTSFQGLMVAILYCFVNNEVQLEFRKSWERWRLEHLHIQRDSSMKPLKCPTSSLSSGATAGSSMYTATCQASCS
To optimize functional activity directed toward Gas coupling, a HEK293/CRE-Luc cell line developed by HDB stably expressing the GLP-1 Receptor was used. 200× concentration of compound working solutions were prepared (Agilent Technologies Bravo) with 1/2 log serial dilution in 384-well Echo LDV plate (Labcyte, Cat #LP-0200). 50 nL/well 200× concentration of compound working solutions were moved to 384-well white low volume plate (Greiner, Cat #784075) using Labcyte ECHO550. 1×10^5 cells/mL HEK293/GLP1R/CRE-LUC (HD Biosciences) cell suspensions prepared with assay buffer [DPBS containing 0.5 mM IBMX (Sigma, Cat #15879) and 0.10% BSA (GENVIEW, Cat #FA016-100g)], 10 μL cell suspensions were added to each well of previous generated assay plate which already contains 50 nL compound at 200× concentration using ThermoFisher Multidrop Combi (1000 cells/well). Seal the plate and incubate at 37° C. with 5% CO2 for 30 min.
After incubation the cAMP assay signal was generated using cAMP dynamic 2 Kit (Cisbio). 5 μL cAMP-d2 working solution was added to each well, followed with 5 μL Anti-cAMP antibody-cryptate working solution added to each well using ThermoFisher Multidrop Combi. Incubate at room temperature for 1 hour protected from light. Read the fluorescence at 665 and 615 nm with Reader PerkinElmer EnVision.
A general note: TR-FRET usually uses a lanthanide donor and a delayed reading to cut background.
`O=C(NCC(F)(F)F)c1ccc2c(nc(CN3CCc4cc(C(F)(F)F)c(OCc5ccc(Cl)cc5F)nc4C3)n2C[C@@H]2CCO2)c1F` [Compound 21, 2-({2-[(4-chloro-2-fluorophenyl)methoxy]-3-(trifluoromethyl)-5,6,7,8-tetrahydro-1,7-naphthyridin-7-yl}methyl)-4-fluoro-1-{[(2S)-oxetan-2-yl]methyl}-N-(2,2,2-trifluoroethyl)-1H-1,3-benzodiazole-5-carboxamide] gave an EC50 of 1 to 300 nM.
For the molecule `CNC(=O)c1ccc2c(nc(CN3CCc4cc(C(F)(F)F)c(OCc5ccc(Cl)cc5F)nc4C3)n2C[C@@H]2CCO2)c1F` [Compound 22, 2-({2-[(4-chloro-2-fluorophenyl)methoxy]-3-(trifluoromethyl)-5,6,7,8-tetrahydro-1,7-naphthyridin-7-yl}methyl)-4-fluoro-N-methyl-1-{[(2S)-oxetan-2-yl]methyl}-1H-1,3-benzodiazole-5-carboxamide], the EC50 lay in the range of 1 to 300 nM.
`O=C(NCC(F)(F)F)c1cc2nc(CN3CCc4cc(C(F)(F)F)c(OCc5ccc(Cl)cc5F)nc4C3)n(C[C@@H]3CCO3)c2cn1` [Compound 23, 2-({2-[(4-chloro-2-fluorophenyl)methoxy]-3-(trifluoromethyl)-5,6,7,8-tetrahydro-1,7-naphthyridin-7-yl}methyl)-3-{[(2S)-oxetan-2-yl]methyl}-N-(2,2,2-trifluoroethyl)-3H-imidazo[4,5-c]pyridine-6-carboxamide] yielded an EC50 of 1 to 300 nM.
With `CNC(=O)c1cc2nc(CN3CCc4cc(C(F)(F)F)c(OCc5ccc(Cl)cc5F)nc4C3)n(C[C@@H]3CCO3)c2cn1` [Compound 24, 2-({2-[(4-chloro-2-fluorophenyl)methoxy]-3-(trifluoromethyl)-5,6,7,8-tetrahydro-1,7-naphthyridin-7-yl}methyl)-N-methyl-3-{[(2S)-oxetan-2-yl]methyl}-3H-imidazo[4,5-c]pyridine-6-carboxamide], the concentration giving a half-maximal response (EC50) is 1 to 300 nM.
The value for `O=C(O)c1ccc2c(n1)nc(CN1CCc3cc(C(F)(F)F)c(OCc4ccc(Cl)cc4F)nc3C1)n2C[C@@H]1CCO1` [Compound 25, 2-({2-[(4-chloro-2-fluorophenyl)methoxy]-3-(trifluoromethyl)-5,6,7,8-tetrahydro-1,7-naphthyridin-7-yl}methyl)-1-{[(2S)-oxetan-2-yl]methyl}-1H-imidazo[4,5-b]pyridine-5-carboxylic acid] was 1 to 300 nM.
As to `O=C(O)c1cc2nc(CN3CCc4cc(C(F)(F)F)c(OCc5ccc(Cl)cc5F)nc4C3)n(C[C@@H]3CCO3)c2cn1` [Compound 26, 2-({2-[(4-chloro-2-fluorophenyl)methoxy]-3-(trifluoromethyl)-5,6,7,8-tetrahydro-1,7-naphthyridin-7-yl}methyl)-3-{[(2S)-oxetan-2-yl]methyl}-3H-imidazo[4,5-c]pyridine-6-carboxylic acid], the EC50 was below 1 nM.
In the case of `O=C(O)c1ccc2c(nc(CN3CCc4cc(C(F)(F)F)c(OCc5ccc(Cl)cc5F)nc4C3)n2C[C@@H]2CCO2)c1F` [Compound 27, 2-({2-[(4-chloro-2-fluorophenyl)methoxy]-3-(trifluoromethyl)-5,6,7,8-tetrahydro-1,7-naphthyridin-7-yl}methyl)-4-fluoro-1-{[(2S)-oxetan-2-yl]methyl}-1H-1,3-benzodiazole-5-carboxylic acid], the EC50 was 1 to 300 nM.
Then `O=C(O)c1ccc2c(c1)nc(CN1CCc3cc(C(F)(F)F)c(OCc4ccc(Cl)cc4F)nc3C1)n2C[C@@H]1CCO1` [Compound 28, 2-({2-[(4-chloro-2-fluorophenyl)methoxy]-3-(trifluoromethyl)-5,6,7,8-tetrahydro-1,7-naphthyridin-7-yl}methyl)-1-{[(2S)-oxetan-2-yl]methyl}-1H-1,3-benzodiazole-5-carboxylic acid], with below 1 nM.
`O=c1[nH]c(-c2cnc3c(c2)nc(CN2CCc4cc(C(F)(F)F)c(OCc5ccc(Cl)cc5F)nc4C2)n3C[C@@H]2CCO2)no1` [Compound 29, 3-[2-({2-[(4-chloro-2-fluorophenyl)methoxy]-3-(trifluoromethyl)-5,6,7,8-tetrahydro-1,7-naphthyridin-7-yl}methyl)-3-{[(2S)-oxetan-2-yl]methyl}-3H-imidazo[4,5-b]pyridin-6-yl]-4,5-dihydro-1,2,4-oxadiazol-5-one] displayed a concentration giving a half-maximal response (EC50) below 1 nM.
Consider `O=c1[nH]c(-c2cnc3c(c2)nc(CN2CCc4cc(C(F)(F)F)c(OCc5c(F)cc(Cl)cc5F)nc4C2)n3C[C@@H]2CCO2)no1` [Compound 30, 3-[2-({2-[(4-chloro-2,6-difluorophenyl)methoxy]-3-(trifluoromethyl)-5,6,7,8-tetrahydro-1,7-naphthyridin-7-yl}methyl)-3-{[(2S)-oxetan-2-yl]methyl}-3H-imidazo[4,5-b]pyridin-6-yl]-4,5-dihydro-1,2,4-oxadiazol-5-one], for which the half-maximal effective concentration (EC50) is below 1 nM.
Then `O=c1[nH]c(-c2cc3nc(CN4CCc5cc(C(F)(F)F)c(OCc6ccc(Cl)cc6)nc5C4)n(C[C@@H]4CCO4)c3cn2)no1` [Compound 31, 3-[2-({2-[(4-chlorophenyl)methoxy]-3-(trifluoromethyl)-5,6,7,8-tetrahydro-1,7-naphthyridin-7-yl}methyl)-3-{[(2S)-oxetan-2-yl]methyl}-3H-imidazo[4,5-c]pyridin-6-yl]-4,5-dihydro-1,2,4-oxadiazol-5-one], with below 1 nM.
Take `O=c1[nH]c(-c2cc3nc(CN4CCc5cc(C(F)(F)F)c(OCc6c(F)cc(Cl)cc6F)nc5C4)n(C[C@@H]4CCO4)c3cn2)no1` [Compound 32, 3-[2-({2-[(4-chloro-2,6-difluorophenyl)methoxy]-3-(trifluoromethyl)-5,6,7,8-tetrahydro-1,7-naphthyridin-7-yl}methyl)-3-{1[(2S)-oxetan-2-yl]methyl}-3H-imidazo[4,5-c]pyridin-6-yl]-4,5-dihydro-1,2,4-oxadiazol-5-one]: the EC50 is below 1 nM.
Then `Cc1ccc(COc2nc3c(cc2C(F)(F)F)CCN(Cc2nc4cc(-c5noc(=O)[nH]5)ncc4n2C[C@@H]2CCO2)C3)c(Cl)c1` [Compound 33, 3-[2-({2-[(2-chloro-4-methylphenyl)methoxy]-3-(trifluoromethyl)-5,6,7,8-tetrahydro-1,7-naphthyridin-7-yl}methyl)-3-{1[(2S)-oxetan-2-yl]methyl}-3H-imidazo[4,5-c]pyridin-6-yl]-4,5-dihydro-1,2,4-oxadiazol-5-one], with below 1 nM.
`Cc1cc2c(nc1OCc1c(F)cc(Cl)cc1F)CN(Cc1nc3cc(-c4noc(=O)[nH]4)ncc3n1C[C@@H]1CCO1)CC2` [Compound 34, 3-[2-({2-[(4-chloro-2,6-difluorophenyl)methoxy]-3-methyl-5,6,7,8-tetrahydro-1,7-naphthyridin-7-yl}methyl)-3-{[(2S)-oxetan-2-yl]methyl}-3H-imidazo[4,5-c]pyridin-6-yl]-4,5-dihydro-1,2,4-oxadiazol-5-one]: the EC50 is below 1 nM.
The value for `Cc1cc2c(nc1NCc1c(F)cc(Cl)cc1F)CN(Cc1nc3cc(-c4noc(=O)[nH]4)ncc3n1C[C@@H]1CCO1)CC2` [Compound 35, 3-{2-[(2-{[(4-chloro-2,6-difluorophenyl)methyl]amino}-3-methyl-5,6,7,8-tetrahydro-1,7-naphthyridin-7-yl)methyl]-3-{[(2S)-oxetan-2-yl]methyl}-3H-imidazo[4,5-c]pyridin-6-yl}-4,5-dihydro-1,2,4-oxadiazol-5-one] was below 1 nM.
Then `O=c1[nH]c(-c2ccc3c(c2)nc(CN2CCc4cc(C(F)(F)F)c(OCc5ccc(Cl)cc5F)nc4C2)n3C[C@@H]2CCO2)no1` [Compound 36, 3-[2-({2-[(4-chloro-2-fluorophenyl)methoxy]-3-(trifluoromethyl)-5,6,7,8-tetrahydro-1,7-naphthyridin-7-yl}methyl)-1-{1[(2S)-oxetan-2-yl]methyl}-1H-1,3-benzodiazol-5-yl]-4,5-dihydro-1,2,4-oxadiazol-5-one], with below 1 nM; and `Cc1cc2c(nc1OCc1c(F)cc(Cl)cc1F)CN(Cc1nc3cc(-c4noc(=O)[nH]4)ccc3n1C[C@@H]1CCO1)CC2` [Compound 37, 3-[2-({2-[(4-chloro-2,6-difluorophenyl)methoxy]-3-methyl-5,6,7,8-tetrahydro-1,7-naphthyridin-7-yl}methyl)-1-{[(2S)-oxetan-2-yl]methyl}-1H-1,3-benzodiazol-5-yl]-4,5-dihydro-1,2,4-oxadiazol-5-one], with below 1 nM.
In turn, `O=c1[nH]c(-c2cc3nc(CN4CCc5cc(C(F)(F)F)c(OCc6ccc(Cl)cc6F)nc5C4)n(C[C@@H]4CCO4)c3cc2F)no1` [Compound 38, 3-[2-({2-[(4-chloro-2-fluorophenyl)methoxy]-3-(trifluoromethyl)-5,6,7,8-tetrahydro-1,7-naphthyridin-7-yl}methyl)-6-fluoro-1-{[(2S)-oxetan-2-yl]methyl}-1H-1,3-benzodiazol-5-yl]-4,5-dihydro-1,2,4-oxadiazol-5-one] yielded an EC50 of 1 to 300 nM.
